In PubChem BioAssay (NCI):
Where “and” joins values, the source holds several entries; their conditions need not be identical. Identical values can stand only once.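 How tested: cells in 96-well plates exposed to compound for 48 hours at five concentrations. GI50: concentration for 50% inhibition of growth. At the TGI there is no net growth.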

Experiments:
Assay in all cases: NCI anticancer screen, dose series, 48 h
[1] = system: COLO 205 colon
[2] = system: DU-145 prostate
[3] = system: M14 melanoma
[4] = system: OVCAR-3 ovarian
[5] = system: OVCAR-8 ovarian
[6] = system: RPMI-8226 leukemia
[7] = system: SK-MEL-2 melanoma
[8] = system: SN12C renal
[9] = system: SNB-75 CNS
[10] = system: NCI-H23 lung

Row | Compound | GI50 [1] | TGI [1] | GI50 [2] | TGI [2] | GI50 [3] | TGI [3] | GI50 [4] | TGI [4] | GI50 [5] | TGI [5] | GI50 [6] | TGI [6] | GI50 [7] | TGI [7] | GI50 [8] | TGI [8] | GI50 [9] | TGI [9] | GI50 [10] [µM] | TGI [10] [µM]
1 | CCN(CC)CCCC(C)Nc1cnc(C(=O)Nc2cc(F)cc3cccnc23)cn1 (stereo unspecified) | 1.16 µM and 0.461 µM | 3.57 µM and 2.16 µM | 10.5 µM and 1.48 µM | 23.1 µM and 2.84 µM | 2.04 µM and 0.994 µM | 4.38 µM and 2.58 µM | 2.14 µM and 0.349 µM | 6.79 µM and 1.23 µM | 7.03 µM and 1.29 µM | 20.2 µM and 5.77 µM | 2.97 µM and 0.502 µM | 12.2 µM and > 20.5 µM | 3.78 µM and 2.55 µM | 10.8 µM and 6.39 µM | 6.4 µM and 1.23 µM | 19.3 µM and 2.54 µM | 4.49 µM and 1.45 µM | 20.1 µM and 2.79 µM | – | –
2 | CCc1nc2ccc(Cc3ccc(C(=O)NO)cc3)cc2c(=O)n1CCc1ccccc1 | 0.871 µM | 2.55 µM | 1.09 µM | 7.81 µM | 1.27 µM | 3.24 µM | 1.15 µM | 3.85 µM | 0.584 µM | 4.16 µM | 1.07 µM | 10.3 µM | 1.62 µM | 3.95 µM | – | – | 1.41 µM | 3.71 µM | 1.11 | 3.89
3 | c1cncc(CNc2ccccc2-c2nnc(Nc3ccc4c(c3)OCCO4)o2)c1 | 0.146 µM | 0.817 µM | 0.244 µM | 1.54 µM | 0.0704 µM | > 100 µM | 0.0452 µM | 0.228 µM | 0.435 µM | > 100 µM | 0.28 µM | 17.7 µM | 0.217 µM | > 100 µM | 0.482 µM | > 100 µM | 0.0527 µM | > 100 µM | 0.226 | > 100
4 | CN(C)CC#Cc1cccc(C(=O)c2cnn(-c3ccc(F)cc3)c2N)c1 | > 25 µM | > 25 µM | > 25 µM | > 25 µM | > 25 µM | > 25 µM | > 25 µM | > 25 µM | > 25 µM | > 25 µM | > 25 µM | > 25 µM | > 25 µM | > 25 µM | > 25 µM | > 25 µM | 19.6 µM | > 25 µM | > 25 | > 25
5 | c1ccc2[nH]c(-c3ccc(OCCCCCOc4ccc(-c5nc6ccccc6[nH]5)cc4)cc3)nc2c1 | 7.83 µM | > 34.5 µM | 0.639 µM | 3.41 µM | 1.73 µM | 4.31 µM | 0.828 µM | 1.84 µM | 4.06 µM | 11.6 µM | 2.21 µM | 6.51 µM | 6.23 µM | 12.7 µM | 3.27 µM | 10.2 µM | 1.91 µM | 3.69 µM | 8.89 | 26
6 | CO/N=C1/NC(=O)/C(=C/c2ccc3ncccc3c2)S1 | > 25 µM | > 25 µM | 12.3 µM | > 25 µM | 9.85 µM | > 25 µM | 11.1 µM | > 25 µM | > 22.6 µM | > 25 µM | > 25 µM | > 25 µM | 12.1 µM | > 25 µM | 16.3 µM | > 25 µM | 4.07 µM | > 25 µM | 12.2 | > 25
7 | Cc1ccc(NS(=O)(=O)c2cc(C)ccc2C)cc1 | 3.49 µM | 14.7 µM | 6.17 µM | 28.1 µM | 2.43 µM | 11 µM | 2.53 µM | 7.12 µM | 5.94 µM | 42.7 µM | 12.7 µM | > 100 µM | 3.2 µM | 9.64 µM | 5.89 µM | 19.9 µM | 3.15 µM | 24.8 µM | 4.65 | 50.5
8 | NC1CCC[C@@H](O)[C@H]1O (stereo partly specified) | – | > 100 µM | – | > 100 µM | – | > 100 µM | – | > 100 µM | – | > 100 µM | – | > 100 µM | – | > 100 µM | – | > 100 µM | – | > 100 µM | – | > 100
9 | CCS(=O)(=O)c1ccc(OC)c(Nc2nccc(N(C)c3ccc4c(C)[nH]nc4c3)n2)c1 | 11 µM | > 25 µM | 8.45 µM | > 25 µM | 8.46 µM | > 21.8 µM | 7.42 µM | > 25 µM | 7.22 µM | > 22.2 µM | 8.35 µM | > 25 µM | 5.45 µM | 14.9 µM | 5.23 µM | > 25 µM | 2.94 µM | 8.38 µM | 6.05 | > 25
10 | O=C(Nc1ccncc1)C(=O)c1cn(S(=O)(=O)c2ccccc2F)c2ccccc12 | 23.6 µM | > 100 µM | 3.48 µM | 18.5 µM | 0.979 µM | > 100 µM | 0.893 µM | 6.85 µM | 2.7 µM | 52.4 µM | 2.54 µM | > 32.7 µM | 5.2 µM | > 57.8 µM | 2.65 µM | > 90.6 µM | 1.65 µM | 18 µM | 0.965 | > 34.8
11 | C#CC[C@H](c1nc2cc(Cl)ccc2c(=O)n1Nc1ccccc1)N(CCCN)C(=O)c1cccc(Cl)c1F | 0.0951 µM | 0.868 µM | 0.215 µM | 0.75 µM | 0.3 µM | 1.63 µM | 0.242 µM | 1.19 µM | 0.511 µM | 1.98 µM | 0.131 µM | 1.16 µM | 0.177 µM | 1.29 µM | 0.205 µM | 1.98 µM | 0.251 µM | 1.53 µM | 0.624 | 11.2
12 | CC(=O)Oc1cccc2c1C(=O)C(Br)(Br)CCC2 | – | 17.2 µM | – | 26.6 µM | – | 8.67 µM | – | 13.3 µM | – | 13 µM | – | 7.34 µM | – | 21.5 µM | – | 19.7 µM | – | 16.5 µM | – | 18.7
13 | CN(C)CCNC(=O)c1cc([N+](=O)[O-])ccn1 | – | 26.3 µM | – | > 100 µM | – | > 100 µM | – | 56.2 µM | – | 76.4 µM | – | > 100 µM | – | 67.5 µM | – | 64 µM | – | > 100 µM | – | 47.1
